Where two headings read alike, the source gives them in different places.

Data set [1] relates to Escherichia coli K-12 M7032 strain. Put plainly: Decomposition of ethylene glycol during production of TPA-DHD, control strain. Format: cell-based. As to conditions: raw material dipotassium terephthalate with ethylene glycol, final concentration 72 mM. On the procedure: Subsequently, in the same manner as described in Example 1, Escherichia coli M7032 (pUXPEaLT_tpaA_tpaK_Pm_fucO_I7L_aldA) strain and Escherichia coli K-12 M7032 strain which serves as a control were cultured in a mini jar fermentor. Concurrently with administration of dipotassium terephthalate which serves as a raw material, 0.278 ml (final concentration 72 mM) of ethylene glycol was placed.
Sampling was carried out 48 hours after the start of main culture. Each of the samples was subjected to analysis in conditions shown in Table 1 by an LC-TOF type mass spectrometer (Waters Corporation, LCT Premier XE). Identification of terephthalic acid was carried out with a combination of retention time of high performance liquid chromatography and an accurate mass value from the mass spectrometer, comparing to a standard sample of terephthalic acid. Among substances appeared as terephthalic acid decreased, TPA-DHD was identified on the basis of a predicted accurate mass value of TPA-DID. Further, quantification of TPA-DHD was carried out on the basis of a calibration curve prepared from an amount of terephthalic acid decreased and an increase in the peak area of TPA-DHD. […]

For data set [2], the system named is Escherichia coli M7032 (pUXPEaLT_tpaA_tpaK_Pm_fucO_I7L_aldA) strain. Put plainly: Decomposition of ethylene glycol during production of TPA-DHD. The class given is cell-based. As to conditions: raw material dipotassium terephthalate with ethylene glycol, final concentration 72 mM.
The nature of data set [3]: Solubility of terephthalic acid salts in water. Format: physicochemical. How it is done:
2.99 g (0.018 mol) of terephthalic acid (in a form of powder, manufactured by Sigma-Aldrich Japan; hereinafter, unless otherwise specified, reagents used were ones manufactured by Sigma-Aldrich Japan) and 0.036 mol of potassium hydroxide (in a form of granule) were put in a 50 mL-glass beaker. Distilled water was filled to obtain a volume of about 15 mL. The resulting mixture was covered with aluminum foil as a lid, heated at 50° C. for 60 minutes while stirred by a hot stirrer (manufactured by AS ONE Corporation), and allowed to cool to 30° C. After stirring at 30° C. for 120 minutes or more and confirming the precipitate remained in the solution, 1 mL of the solution was collected and subjected to centrifugation using a high speed micro centrifuge (manufactured by Tomy Seiko Co., Ltd.) (30° C., 14000 rpm (17800 g), 30 seconds) to collect the supernatant.
The concentration of terephthalic acid in this supernatant was measured and regarded as the solubility of dipotassium terephthalate. With regard to the measurement of the concentration of terephthalic acid, the sample was diluted 16,000-fold with 2.5% aqueous acetonitrile solution and analyzed in separation conditions of Table 1 using high performance liquid chromatography (Waters Corporation, LCT Premier XE). Thereafter, the concentration was calculated on the basis of a ratio of the area of terephthalic acid peaks using aqueous terephthalic acid solution with a known concentration as a control.

`O=C(O)C1=CC(O)C(O)(C(=O)O)C=C1` (stereo not drawn) [TPA-DHD, terephthalate 1,2-cis-dihydrodiol]: the “amount of TPA-DHD produced 48 hours after the start of the culture” value in data set [1] was determined as 11.1 g/L; in data set [2], 10.5 g/L.

In the case of `N.O=C([O-])c1ccc(C(=O)O)cc1.[Na+]` [1-sodium 4-ammonium terephthalate, reference compound], in data set [3], the solubility was determined as 612 mM and the “solubility in water at 30° C.” value is given as “about 0.61 M”.

`N.N.O=C(O)c1ccc(C(=O)O)cc1` [Diammonium terephthalate, diammonium terephthalate, reference compound]: the solubility in data set [3] (30 °C, water, thermodynamic from solid, in water at 30° C., rounded values of the summary, read-out: solubility in water at 30° C.) was ~510 mM; in data set [3] (30 °C, water, thermodynamic from solid, in water, 30° C., read-out: Solubility), 512 mM.

A word on the solubility: it is the dissolved amount per volume that the medium holds.

(Values after patent US9394549B2, “Method for producing useful chemical substance from terephthalic acid potassium salt” (GENARIS, INC., priority 2012, dated 2016).)
